According to article PMC3201722 (NMR in biomedicine, 2011):

Target: T1, choline kinase (CK) [EC 2.7.1.32] (Saccharomyces cerevisiae, UniProt P20485)
T1 sequence (P20485 2-582): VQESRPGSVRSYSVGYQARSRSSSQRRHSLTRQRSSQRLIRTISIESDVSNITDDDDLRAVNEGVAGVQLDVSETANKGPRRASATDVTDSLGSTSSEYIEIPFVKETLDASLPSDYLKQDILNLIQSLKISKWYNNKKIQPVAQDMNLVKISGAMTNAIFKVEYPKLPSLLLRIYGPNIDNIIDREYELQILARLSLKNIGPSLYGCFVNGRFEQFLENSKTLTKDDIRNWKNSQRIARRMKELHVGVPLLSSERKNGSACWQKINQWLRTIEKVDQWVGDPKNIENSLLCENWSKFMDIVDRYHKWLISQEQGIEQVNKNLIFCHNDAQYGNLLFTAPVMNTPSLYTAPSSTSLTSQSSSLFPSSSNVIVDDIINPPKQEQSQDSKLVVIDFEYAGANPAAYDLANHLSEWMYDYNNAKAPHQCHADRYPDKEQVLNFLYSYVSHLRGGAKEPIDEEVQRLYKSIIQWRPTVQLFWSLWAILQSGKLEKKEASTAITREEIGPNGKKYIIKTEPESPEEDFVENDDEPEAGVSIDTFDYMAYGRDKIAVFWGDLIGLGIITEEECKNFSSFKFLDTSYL
Assay: 1H NMR
Type: biochemical

IC50: < 0.5 µM
Compound: CN1CC[C@H](c2c(O)cc(O)c3c(=O)cc(-c4ccccc4Cl)oc23)[C@H](O)C1 [flavopiridol]
